Data reported in patent US11510962B2, “Manufacture of degarelix” (Ferring B.V., priority 2012, dated 2022).
Square brackets hold non-standard residues; d marks the D form. Peptide text beside a SMILES is read from it. * marks the point of attachment. dPhe(4-NHCONH2) = NC(=O)Nc1ccc(C[C@@H](N)C(=O)O)cc1; Dihydroorotyl(S) = O=C1C[C@@H](C(=O)*)NC(=O)N1; dPhe(4-Cl) = N[C@H](Cc1ccc(Cl)cc1)C(=O)O; Phe(4-NH2) = Nc1ccc(C[C@H](N)C(=O)O)cc1; d2Nal = N[C@H](Cc1ccc2ccccc2c1)C(=O)O; Lys(iPr) = CC(C)NCCCC[C@H](N)C(=O)O; d3Pal = N[C@H](Cc1cccnc1)C(=O)O

What was measured:
[1] = Reconstitution of degarelix vials with WFI/surfactant solution: OD (absorbance) at 350 nm; assay type: physicochemical; settings: vials reconstituted to 60 mg/ml degarelix, surfactant 1 mg/ml (0.1%) in WFI, 30 min, 60 min, 120 min, 24 hours
Description: Procedure: • Degarelix batch reconstituted using WFI (as control) and using WFI containing the surfactants. The vials are reconstituted to 60 mg/ml degarelix.

[2] = In-vitro release profile (IVD assay) of degarelix vials reconstituted with WFI+Tween 20; assay type: physicochemical; settings: 40 mg/ml degarelix; Tween 20 at 1, 0.5, 0.25 mg/ml; control WFI
Description: Tween 20 concentrations tested:
1 mg/ml; 0.5 mg/ml; 0.25 mg/ml;

[3] = target: GnRH receptors in the pituitary (Homo sapiens, UniProt P30968); settings: prostate cancer patients; literature; cited from earlier work
GnRH receptors in the pituitary, sequence (P30968 whole entry): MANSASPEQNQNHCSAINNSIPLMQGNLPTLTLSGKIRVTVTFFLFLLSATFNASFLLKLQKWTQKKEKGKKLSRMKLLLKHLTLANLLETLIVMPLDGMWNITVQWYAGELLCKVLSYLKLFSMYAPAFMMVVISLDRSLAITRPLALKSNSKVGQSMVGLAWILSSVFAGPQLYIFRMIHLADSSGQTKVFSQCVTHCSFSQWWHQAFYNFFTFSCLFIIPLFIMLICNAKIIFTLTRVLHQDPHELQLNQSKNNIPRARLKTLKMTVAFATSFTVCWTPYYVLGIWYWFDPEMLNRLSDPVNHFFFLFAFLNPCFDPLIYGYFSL

[4] = in vivo
[5] = De-aggregation experiments with acetic acid: viscosity of degarelix stock solution; assay type: physicochemical
Description: Determination of the viscosity of the drug substance and drug product solution is based on the current edition of Ph. Eur. and USP procedure using a rotating viscometer equipped with a cone-plate measuring system with D=60 mm and 1°. The shear rate is increased from 0 to 500 s in 20 steps, using a controlled rate (CR) rotation step program at a constant temperature of 20±0.2° C., making certain that the system reaches equilibrium before the viscosity is recorded at a shear rate of 500 s^−1. During the de-aggregation studies the temperature was set to 5, 20, 25, or 35° C. The concentration of degarelix drug substance was 5, 15, 25, or 35 mg/ml. The concentration of acetic acid is 13, 15, 18, 20, 22, 26, 30, 35 or 40%. Viscosity: Take out 1.2 ml at T=1, 60, 120, and 240 min. De-aggregation Experiment Protocol, total volume 20 or 69 ml: • 1. Weigh the required amount of stock solution into a beaker. Equilibrate to the desired temperature • 2. Weigh the required amount of acetic acid (100%) into a beaker • 3. Mix the acetic acid (100%) with 3 or 10 ml of milli-Q water and equilibrate to the desired temperature • 4. Mix the degarelix stock solution with the acetic acid/milli-Q water solution • 5. Fill milli-Q water up to 20 or 69 ml • 6. Mix thoroughly • 7. Take samples for viscosity and optical density as described above. Note the appearance of the solution during the experiment

[6] = De-aggregation experiments with acetic acid: final optical density; assay type: physicochemical
Description: During the de-aggregation studies the temperature was set to 5, 20, 25, or 35° C. The concentration of degarelix drug substance was 5, 15, 25, or 35 mg/ml. The concentration of acetic acid is 13, 15, 18, 20, 22, 26, 30, 35 or 40%. Optical Density (OD): A sample (1 ml) should be taken at the end of each experiment for measurement of the final optical density. De-aggregation Experiment Protocol, total volume 20 or 69 ml: • 1. Weigh the required amount of stock solution into a beaker. Equilibrate to the desired temperature • 2. Weigh the required amount of acetic acid (100%) into a beaker • 3. Mix the acetic acid (100%) with 3 or 10 ml of milli-Q water and equilibrate to the desired temperature • 4. Mix the degarelix stock solution with the acetic acid/milli-Q water solution • 5. Fill milli-Q water up to 20 or 69 ml • 6. Mix thoroughly • 7. Take samples for viscosity and optical density as described above. Note the appearance of the solution during the experiment

[7] = 5 °C, degarelix 5 mg/ml, AcOH 40%
[8] = 5 °C, degarelix 25 mg/ml, AcOH 13%
[9] = 5 °C, degarelix 25 mg/ml, AcOH 15%
[10] = 5 °C, degarelix 25 mg/ml, AcOH 20%
[11] = 5 °C, degarelix 35 mg/ml, AcOH 26%
[12] = 20 °C, degarelix 15 mg/ml, AcOH 30%
[13] = 25 °C, degarelix 25 mg/ml, AcOH 20%
[14] = 35 °C, degarelix 25 mg/ml, AcOH 15%
[15] = 35 °C, degarelix 25 mg/ml, AcOH 18%
[16] = 35 °C, degarelix 25 mg/ml, AcOH 20%
[17] = 35 °C, degarelix 35 mg/ml, AcOH 22%
[18] = 35 °C, degarelix 35 mg/ml, AcOH 26%
[19] = 35 °C, degarelix 35 mg/ml, AcOH 30%
[20] = 35 °C, degarelix 35 mg/ml, AcOH 35%

Polysorbate 20 [Tween 20]
optical density versus control [1]: reduced the optical density to a level below the control
in-vitro release profiles [2]: not altered

CC(=O)N[C@H](Cc1ccc2ccccc2c1)C(=O)N[C@H](Cc1ccc(Cl)cc1)C(=O)N[C@H](Cc1cccnc1)C(=O)N[C@@H](CO)C(=O)N[C@@H](Cc1ccc(NC(=O)[C@@H]2CC(=O)NC(=O)N2)cc1)C(=O)N[C@H](Cc1ccc(NC(N)=O)cc1)C(=O)N[C@@H](CC(C)C)C(=O)N[C@@H](CCCCNC(C)C)C(=O)N1CCC[C@H]1C(=O)N[C@H](C)C(N)=O [Degarelix, D-Alaninamide, N-acetyl-3-(2-naphthalenyl)-D-alanyl-4-chloro-D-phenylaanyl-3-(3-pyridinyl)-D-alanyl-L-seryl-4-[[[(4S)-hexahydro-2,6-dioxo-4-pyrimidinyl]carbonyl]amino]-L-phenylalanyl-4-[(aminocarbonyl)amino]-D-phenylaanyl-L-leucyl-N6-(1-methylethyl)-L-lysyl-L-prolyl-] (Ac-[d2Nal][dPhe(4-Cl)][d3Pal]S[Phe(4-NH2)](Dihydroorotyl(S))[dPhe(4-NHCONH2)]L[Lys(iPr)]P[dA]-NH2)
testosterone surge or clinical flare [3]: does not cause testosterone surge or clinical flare
sustained release from the depot [4]: sustained release of the active over months
Viscosity @ 500 Time = 240 min [5, 7]: 1.9 mPas * s
Viscosity @ 500 Time = 240 min [5, 8]: 2.3 mPas * s
Viscosity @ 500 Time = 240 min [5, 9]: 1.9 mPas * s
Viscosity @ 500 Time = 240 min [5, 10]: 1.7 mPas * s
Viscosity @ 500 Time = 240 min [5, 11]: 1.9 mPas * s
Viscosity @ 500 Time = 240 min [5, 12]: 1.8 mPas * s
Viscosity @ 500 Time = 240 min [5, 13]: 2.0 mPas * s
Viscosity @ 500 Time = 240 min [5, 14]: 7.2 mPas * s
Viscosity @ 500 Time = 240 min [5, 15]: 2.1 mPas * s
Viscosity @ 500 Time = 240 min [5, 16]: 1.7 mPas * s
Viscosity @ 500 Time = 240 min [5, 17]: 2.1 mPas * s
Viscosity @ 500 Time = 240 min [5, 18]: 1.9 mPas * s
Viscosity @ 500 Time = 240 min [5, 19]: 2.0 mPas * s
Viscosity @ 500 Time = 240 min [5, 20]: 2.1 mPas * s
Optical Density Time = 240 min [6, 7]: 0.00
Optical Density Time = 240 min [6, 8]: 0.10
Optical Density Time = 240 min [6, 9]: 0.09
Optical Density Time = 240 min [6, 10]: 0.06
Optical Density Time = 240 min [6, 11]: 0.08
Optical Density Time = 240 min [6, 12]: 0.03
Optical Density Time = 240 min [6, 13]: 0.10
Optical Density Time = 240 min [6, 14]: 0.86
Optical Density Time = 240 min [6, 15]: 0.07
Optical Density Time = 240 min [6, 16]: 0.05
Optical Density Time = 240 min [6, 17]: 0.13
Optical Density Time = 240 min [6, 18]: 0.10
Optical Density Time = 240 min [6, 19]: 0.07
Optical Density Time = 240 min [6, 20]: 0.08
